From publication PMC8950706, “Influence of Substitutions in the Binding Motif of Proline-Rich Antimicrobial Peptide ARV-1502 on 70S Ribosome Binding and Antimicrobial Activity” (International Journal of Molecular Sciences, 2022)
In brackets after ≈: the same amount, converted by molar mass. Entries after “also recorded” stand apart in the source; their conditions may differ. Square brackets hold non-standard residues; d marks the D form. Peptide text beside a SMILES is read from it. Ac6c = NC1(C(=O)O)CCCCC1

Columns and labels:
[1] = test system: E. coli BW25113 ∆sbmA; type: cell-based, Escherichia coli; conditions: 20 h, at least duplicates on two days, * once on two days, ** duplicate on one day; for Minimal Inhibitory Concentration, 25% MHB2, ∆sbmA: 25% MHB2, 37 °C; for Minimal Inhibitory Concentration, 33% TSB, ∆sbmA: 37 °C
Procedure, shortened: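 Twofold peptide dilutions from 128 mg/L were made in 25% MHB2 or 33% TSB, with 4 h subcultured bacteria added to […]. After 20 h at 37 °C, OD595 was read; MIC is the lowest peptide concentration preventing visible growth.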

[2] = test system: E. coli 70S ribosome; assay: Competitive fluorescence polarization assay against Cf-Onc112 (Ki); type: binding; conditions: Supplementary Figure S3; read-out: Ki as competitor of Cf-Onc112
Protocol: (§1) Dissociation and inhibitory constants were determined in black 384-well-plates (Greiner Bio-One GmbH, Frickenhausen, Germany) blocked with 0.5% (w/v) casein in phosphate buffered saline (PBS, 8.8 mmol/L Na2HPO4×12 H2O, 1.2 mmol/L KH2PO4, 0.3 mol/L NaCl, pH 7.4) containing 0.05% (w/v) Tween® 20 (PBST) overnight at 4 °C and washed three times with PBST.
(§2) Ribosome solution was added (10 µmol/L) and the plate was incubated after centrifugation (2 min, 500× g, Rotor S2096, Allegra^TM 21R, Beckmann Coulter) at 28 °C for 90 min. Cf-labeled peptide was added (10 µL; final concentration of 20 nmol/L; final ribosome concentration of 0.5 µmol/L) and the plate was centrifuged and incubated again (90 min, 28 °C, dark). Fluorescence polarization was recorded (λex = 485 nm, λem = 535 nm) on a […]^TM microplate reader. Kd and IC50 values were calculated by fitting the data with a variable slope parameter [y = min + (max − min)/(1 + (x/Kd) ^−Hill slope) ] using SigmaPlot 13 (Systat Software Inc., San Jose, CA, USA). The obtained IC50 values were used to calculate the Ki values.

[3] = test system: E. coli 70S ribosome; assay: Cell-free GFP expression assay (in vitro translation); type: biochemical; conditions: for In Vitro Translation (%): GFP expression remaining relative to control, concentration not given (higher concentration 50 µmol/L)
Excerpt: Possible effects of ARV-1502 and its substituted analogs on the in vitro translation of the green fluorescent protein (GFP) were probed using the NEB PureExpress Delta RF123 Kit (New England Biolabs, Ipswich, MA, USA). The sfGFP DNA template was amplified from pY71sfGFP plasmid by PCR introducing an UAA stop codon. Release factor 1 (RF1) was 50fold diluted in Pure System Buffer (PSB) containing magnesium acetate (1 mol/L), monopotassium phosphate (0.5 mol/L, pH 7.3), potassium glutamate (1 mol/L), NH4Cl (1 mol/L), calcium chloride (0.5 mol/L), spermidine (1 mol/L), putrescine (0.1 mol/L), and DTT (0.1 mol/L). Each reaction used 35 ng of sfGFP template. Peptides were added at a final concentration of 5 µmol/L and 50 µmol/L. The reaction was started by adding Kit solutions A (2 µL) and B (1.5 µL), diluted RF1 (0.5 µL), sfGFP template (0.25 µL or water as negative control), PSB (0.25 µL), and peptide (0.5 µL or water), mixed, transferred into a black 384-well plate (flat bottom, Greiner Bio-One GmbH), and incubated (37 °C, 2 h). The fluorescence was recorded every 10 min (λexc = 485 nm, λem = 535 nm) in a microplate reader (Gemini EM, Molecular Devices LLC, San Jose, CA, USA).

[4] = test system: E. coli 70S ribosome; assay: Competitive fluorescence polarization assay against Cf-Api137 (Ki); type: binding; conditions: Supplementary Figure S3; read-out: Ki as competitor of Cf-Api137
Protocol: as §1, §2

[5] = test system: E. coli BW25113; assay: Checkerboard assay (FICI); type: cell-based, Escherichia coli; conditions: E. coli BW25113, 25% MHB2; synergy FICI ≤ 0.5, antagonism FICI ≥ 4; Table S6
Protocol: Synergy was tested in sterile 96-well plates (polystyrene F-bottom, Greiner Bio-One GmbH) using a total volume of 100 μL per well. […] Plates were incubated (37 °C, 20 h) and the optical density recorded at 595 nm using a microplate reader (Victor3, Perkin Elmer Inc., Waltham, MA, USA). The fractional inhibitory concentration index (FICI) was calculated by the equation FICI = […] = (A/MICA) + (B/MICB), where MICA/B are the MICs of an antimicrobial peptide (A) and one of the three tested antibiotics (B) alone and A and B are the MICs of combined antimicrobials. Synergy was defined as FICI ≤ 0.5, antagonism as FICI ≥ 4 and additive or indifference as FICI between 0.5 and 4.

[6] = test system: E. coli BW25113; assay: MIC, liquid broth micro dilution, wild type; type: cell-based, Escherichia coli; conditions: for MIC (µg/mL), Table 3: BW25113, 4 h; for Minimal Inhibitory Concentration, 25% MHB2, wt / Minimal Inhibitory Concentration, 33% TSB, wt: BW25113, 20 h
Protocol: MIC values were determined using a liquid broth micro dilution assay in sterile 96-well plates (polystyrene F-bottom, Greiner Bio-One GmbH) and a total volume of 100 μL per well. Aqueous peptide solutions (10 g/L) were serially twofold diluted in 25% Mueller-Hinton broth 2 (25% MBH2) or 33% tryptic soy broth (33% TSB) starting at a peptide concentration of 128 mg/L (50 μL/well). Overnight cultures of bacteria grown in 25% MHB2 (or 33% TSB) were diluted 30-fold in 25% MHB2 (or 33% TSB). After an incubation period of 4 h (37 °C, 200 rpm), cells were diluted to 1.5 × 10^7 cfu/mL, based on a McFarland test, and 50 μL were added to each well (final concentration of 7.5 × 10^6 […]). The plates were incubated (37 °C, 20 h) and the optical density was recorded at 595 nm using a microplate reader ([…]^TM, Beckmann Coulter). The MIC was defined as the lowest peptide concentration preventing visible bacterial growth.

SMILES | Minimal Inhibitory Concentration, 25% MHB2, ∆sbmA [1] | Minimal Inhibitory Concentration, 33% TSB, ∆sbmA [1] | Ki [2] | In Vitro Translation (%) [3] | Reduction of GFP expression, 50 µmol/L peptide ([3]; cell-free expression, peptide-to-ribosome ratio of 25, GFP fluorescence, 37 °C) | Ki [4] | Checkerboard assay (FICI), peptide combined with chloramphenicol [5] | MIC (µg/mL), Table 3 [6] | Minimal Inhibitory Concentration, 25% MHB2, wt [6] | Minimal Inhibitory Concentration, 33% TSB, wt [6] | Reduction of GFP fluorescence intensity, 10-fold lower concentration (5 µmol/L peptide) ([3]; cell-free expression, 2.5-fold peptide excess, 37 °C) | IC50 ([3]; in vitro translation, Supplementary Figure S2, reference 4 is also given at the place, read-out: IC50 of inhibition of GFP expression)
CC(C)C[C@H](NC(=O)[C@H](Cc1ccc(O)cc1)NC(=O)[C@@H]1CCCN1C(=O)[C@H](CCCNC(=N)N)NC(=O)[C@@H]1CCCN1C(=O)[C@H](CCCCN)NC(=O)[C@H](CC(=O)O)NC(=O)[C@@H]1CCCN1C(=O)[C@H](CCCNC(=N)N)NC(=O)C1(N)CCCCC1)C(=O)N1CCC[C@H]1C(=O)N[C@@H](CCCNC(=N)N)C(=O)N1CCC[C@H]1C(=O)N[C@@H](CCCNC(=N)N)C(=O)N1CCC[C@H]1C(=O)N1CCC[C@H]1C(=O)N[C@@H](CCCNC(=N)N)C(=O)N1CCC[C@H]1C(=O)N[C@H](C(=O)N[C@@H](CCCNC(=N)N)C(N)=O)C(C)C [ARV-1502] (H-[Ac6c]RPDKPRPYLPRPRPPRPVR-NH2) | 16 to 32 µg/mL | 64 µg/mL | 120 nM | 105.8 ± 0.9% | no significant effects; also recorded: not at all | 3.14 µM | did not indicate synergistic or antagonistic effects | 8 µg/mL (≈ 3.23 µM) | 8 µg/mL | 16 µg/mL |  | 
CC(C)C[C@H](NC(=O)[C@H](Cc1ccc(O)cc1)NC(=O)[C@@H]1CCCN1C(=O)[C@H](CCCNC(=N)N)NC(=O)[C@@H]1CCCN1C(=O)[C@H](CCCCN)NC(=O)[C@H](CCCCN)NC(=O)[C@@H]1CCCN1C(=O)[C@H](CCCNC(=N)N)NC(=O)C1(N)CCCCC1)C(=O)N1CCC[C@H]1C(=O)N[C@@H](CCCNC(=N)N)C(=O)N1CCC[C@H]1C(=O)N[C@@H](CCCNC(=N)N)C(=O)N1CCC[C@H]1C(=O)N1CCC[C@H]1C(=O)N[C@@H](CCCNC(=N)N)C(=O)N1CCC[C@H]1C(=O)N[C@H](C(=O)N[C@@H](CCCNC(=N)N)C(N)=O)C(C)C [Peptide 2] (H-[Ac6c]RPKKPRPYLPRPRPPRPVR-NH2; N-terminus and C-terminus assumed) |  |  |  | 53.2 ± 8.2% |  |  | Slightly higher FICIs | 4 µg/mL (≈ 1.61 µM) | 4 µg/mL | 32 to 64 µg/mL | 22% | 
CC[C@H](C)[C@H](NC(=O)[C@@H](CCCNC(=N)N)NC(=O)[C@H](CCCNC(=N)N)NC(=O)[C@@H]1CCCN1C(=O)[C@@H]1CCCN1C(=O)[C@H](CCCNC(=N)N)NC(=O)[C@@H]1CCCN1C(=O)[C@H](CCCNC(=N)N)NC(=O)[C@@H]1CCCN1C(=O)[C@H](CC(C)C)NC(=O)[C@H](Cc1ccc(O)cc1)NC(=O)[C@@H]1CCCN1C(=O)[C@@H]1CCCN1C(=O)[C@H](CCCCN)NC(=O)[C@H](CC(=O)O)NC(=O)[C@@H](N)C(C)C)C(=O)N[C@@H](Cc1ccc(O)cc1)C(=O)N[C@@H](CC(N)=O)C(=O)N[C@H](CCCNC(=N)N)C(N)=O [Onc112, reference compound] (H-VDKPPYLPRPRPPR[dR]IYN[dR]-NH2; N-terminus and C-terminus assumed) | 16 to 32 µg/mL | 64 µg/mL |  | 4.9 ± 0.3% |  |  |  | 8 µg/mL (≈ 3.35 µM) | 8 µg/mL | 16 µg/mL |  | 150 nM
